In US20250177533A1, “PHOTODYNAMIC THERAPY AND DIAGNOSIS” (RMW CHO Group Limited, priority 2021, published 2025):
Read-outs that look alike come from different tables or passages of the source.

Assays:
[1] = tested on: Human ovarian cancer cell line SKOV3; assay: Phototoxicity in SKOV3 cells (660 nm laser or LED, AlamarBlue viability); type: cell-based; conditions: Homo sapiens, SK-OV-3, light or radiation study, SKOV3, 24 h uptake, viability 24 h later
Text: All data are shown as mean±SD (where appropriate).
Media was then replaced with fresh media containing AlamarBlue, and % viable cells remaining assessed as above. […] All measurements were made in quadruplicate.

[2] = tested on: Human ovarian cancer cell line SKOV3; conditions: 24 h
Protocol: Serial dilutions were prepared in cell culture media (Dulbecco's Modified Eagle Medium/Nutrient Mixture F-12 (DMEM/F-12)) supplemented with 10% v/v Fetal Bovine Serum, 100 U/mL penicillin, 100 μg/mL streptomycin and the same excipient solution at a constant 1:55 dilution.
Human ovarian cancer cell line SKOV3 (ATCC #HTB-77) was maintained in Dulbecco's Modified Eagle Medium/Nutrient Mixture F-12 (DMEM/F-12), supplemented with 10% v/v Fetal Bovine Serum, 100 U/mL penicillin and 100 μg/mL streptomycin. Monolayer cultures were grown in a humidified incubator at 37° C. with 5% CO2. Once cells had reached ˜80% confluence, spent media was replaced with media containing photosensitizer at the required concentration and cells were incubated for the desired period of time to allow photosensitizer uptake.
Spectral absorbance and viability measurements were normalized in the range 0-100%, with a minimum of 0 and a maximum value determined from the dataset. Dose response was determined using a sigmoidal four-point non-linear regression with variable slope, and IC10 or IC90 calculated for each compound. All data are shown as mean±SD (where appropriate).
On reaching ˜60% confluence, media was aspirated and replaced with fresh media containing the relevant phyllochlorin analogue from 0-100 μM in DMSO.
Untreated cells were used as a control. […] All measurements were made in quadruplicate.
The phototoxicity and inherent cytotoxicity (i.e. “dark toxicity”) of phyllochlorin analogues were assessed as previously using SKOV3 ovarian cancer cells. For comparative purposes, phyllochlorin analogues were compared against chlorin e4 disodium and Talaporfin sodium, a clinically approved photosensitizer used in the photodynamic treatment of lung cancers.

[3] = 660 nm laser 50 mW/cm^2 for 5 mins (15 J/cm^2), read-out: Phototoxicity μM (IC90)

SMILES	IC90 [1, 3] [µM]	Dark toxicity μM (IC10) [2] [µM]	IC90 ([1]; 660 nm LED panel 50 mW/cm^2 for 5 mins (15 J/cm^2), read-out: Phototoxicity μM (IC90), measured by LED) [µM]
CCC1=C(C)c2cc3[nH]c(cc4nc(c(C)c5cc(C)c(cc1n2)[nH]5)[C@@H](CCC(=O)N(C)CCCO)[C@@H]4C)c(C)c3C(C)OCCCS[C@@H]1O[C@H](CO)[C@@H](O)[C@H](O)[C@H]1O (stereo partly drawn) [Compound 2, phyllochlorin N-3-hydroxypropyl-N-methyl propylamide propyloxythio-D-glucose]	0.03	7.640	–
CCC1=C(C)c2cc3[nH]c(cc4nc(c(C)c5cc(C)c(cc1n2)[nH]5)[C@@H](CCC(=O)OC)[C@@H]4C)c(C)c3CO [Compound 3, phyllochlorin 13-hydroxymethyl methyl ester]	0.308	45.720	–
CCC1=C(C)c2cc3[nH]c(cc4nc(c(C)c5cc(C)c(cc1n2)[nH]5)[C@@H](CCC(=O)OC)[C@@H]4C)c(C)c3CO[C@@H]1O[C@H](CO)[C@@H](O)[C@H](O)[C@H]1O [Compound 4, phyllochlorin 13-hydroxymethyl-β-D-glucoside ether methyl ester]	0.099	0.775	–
CCC1=C(C)c2cc3[nH]c(cc4nc(c(C)c5cc(C)c(cc1n2)[nH]5)[C@@H](CCC(=O)N(C)CCCO)[C@@H]4C)c(C)c3CO[C@@H]1O[C@H](CO)[C@@H](O)[C@H](O)[C@H]1O [Compound 6, phyllochlorin N-3-hydroxypropyl-N-methyl-propylamide 13-hydroxymethyl-β-D-glucoside ether]	0.084	0.528	–
CCC1=C(C)c2cc3[nH]c(cc4nc(c(C)c5cc(C)c(cc1n2)[nH]5)[C@@H](CCC(=O)OC)[C@@H]4C)c(C)c3CO[C@@H]1O[C@H](CO)[C@@H](O[C@H]2O[C@H](CO)[C@@H](O)[C@H](O)[C@H]2O)[C@H](O)[C@H]1O [Compound 8, phyllochlorin 13-hydroxymethyl-β-D-maltose ether methyl ester]	0.665	7.442	–
CCC1=C(C)c2cc3[nH]c(cc4nc(c(C)c5cc(C)c(cc1n2)[nH]5)[C@@H](CCC(=O)N(C)C[C@H](O)[C@@H](O)[C@H](O)[C@H](O)CO)[C@@H]4C)c(C)c3CO[C@@H]1O[C@H](CO)[C@@H](O)[C@H](O)[C@H]1O [Compound 10, phyllochlorin N-meglumine-propylamide-13-hydroxymethyl-β-D-glucoside ether]	1.5	4.732	–
CCC1=C(C)c2cc3[nH]c(cc4nc(c(C)c5cc(C)c(cc1n2)[nH]5)[C@@H](CCC(=O)N(C)CCCO[C@@H]1O[C@H](CO)[C@@H](O)[C@H](O)[C@H]1O)[C@@H]4C)c(C)c3CO[C@@H]1O[C@H](CO)[C@@H](O)[C@H](O)[C@H]1O [Compound 12, phyllochlorin 13-hydroxymethyl-β-D-glucoside ether-β-D-glucosyl-N-methylpropylamide]	0.353	2.466	–
CCC1=C(C)c2cc3[nH]c(cc4nc(c(C)c5cc(C)c(cc1n2)[nH]5)[C@@H](CCC(=O)N(CCOCCOCCOC)CCOCCOCCOC)[C@@H]4C)c(C)c3CO [Compound 13, phyllochlorin 13-hydroxymethyl-N,N-bis-PEG3OMe propylamide]	0.421	60.750	–
CCC1=C(C)c2cc3[nH]c(cc4nc(c(C)c5cc(C)c(cc1n2)[nH]5)[C@@H](CCC(=O)N(CCOCCOCCOC)CCOCCOCCOC)[C@@H]4C)c(C)c3CO[C@@H]1O[C@H](CO)[C@@H](O)[C@H](O)[C@H]1O [Compound 14, phyllochlorin 13-hydroxymethyl-β-D-glucoside ether-N,N-bis-PEG3OMe propylamide]	0.186	0.626	–
CCC1=C(C)c2cc3[nH]c(cc4nc(c(C)c5cc(C)c(cc1n2)[nH]5)[C@@H](CCC(=O)NCCOCCO[C@@H]1O[C@H](CO)[C@@H](O)[C@H](O)[C@H]1O)[C@@H]4C)c(C)c3CO[C@@H]1O[C@H](CO)[C@@H](O)[C@H](O)[C@H]1O [Compound 16, phyllochlorin 13-hydroxymethyl-β-D-glucoside ether-β-D-1-glucose-2-ethoxy-N-ethanamine]	1.82	5.929	–
CCC1=C(C)c2cc3[nH]c(cc4nc(c(C)c5cc(C)c(cc1n2)[nH]5)[C@@H](CCC(=O)O)[C@@H]4C)c(C)c3CO [Compound 17, phyllochlorin 13-hydroxymethyl]	0.891	25.000	–
CCC1=C(C)c2cc3[nH]c(cc4nc(c(C)c5cc(C)c(cc1n2)[nH]5)[C@@H](CCC(=O)N(C)CCCOCCC[P+](c1ccccc1)(c1ccccc1)c1ccccc1)[C@@H]4C)c(C)c3CO [Compound 18]	0.007	4.393	–
CCC1=C(C)c2cc3[nH]c(cc4nc(c(C)c5cc(C)c(cc1n2)[nH]5)[C@@H](CCC(=O)N(C)CCCOCCC[P+](c1ccccc1)(c1ccccc1)c1ccccc1)[C@@H]4C)c(C)c3CO[C@@H]1O[C@H](CO)[C@@H](O)[C@H](O)[C@H]1O [Compound 19]	0.018	0.090	–
CCC1=C(C)c2cc3[nH]c(cc4nc(c(C)c5cc(C)c(cc1n2)[nH]5)[C@@H](CCC(=O)OC)[C@@H]4C)c(C)c3C(C)OCCC[n+]1ccccc1 (stereo partly shown) [Compound 20, phyllochlorin methyl ester 3-pyridinium bromide propyl ether]	0.003	1.998	–
CCC1=C(C)c2cc3[nH]c(cc4nc(c(C)c5cc(C)c(cc1n2)[nH]5)[C@@H](CCC(=O)OC)[C@@H]4C)c(C)c3C(C)OCCOCC[n+]1ccccc1 (stereo partly shown) [Compound 22, phyllochlorin methyl ester 2-(2-pyridiniumethoxy)ethyl ether chloride]	0.004	2.228	–
CCC1=C(C)c2cc3[nH]c(cc4nc(c(C)c5cc(C)c(cc1n2)[nH]5)[C@@H](CCC(=O)OC)[C@@H]4C)c(C)c3C(C)OCCOCC[P+](c1ccccc1)(c1ccccc1)c1ccccc1 (stereo partly shown) [Compound 23, phyllochlorin methyl ester 2-(2-triphenylphosphoniumethoxy)ethyl ether chloride]	0.012	3.086	–
CCC1=C(C)c2cc3[nH]c(cc4nc(c(C)c5cc(C)c(cc1n2)[nH]5)[C@@H](CCC(=O)N(C)CCOCCOCCOCCOCCOCCOC)[C@@H]4C)c(C)c3CO [Compound 24, phyllochlorin 13-hydroxymethyl N-methyl-N-3,6,9,12,15,18-hexaoxanonadecyl propylamide]	0.503	41.190	–
CCC1=C(C)c2cc3[nH]c(cc4nc(c(C)c5cc(C)c(cc1n2)[nH]5)[C@@H](CCC(=O)N(C)CCOCCOCCOCCOCCOCCOC)[C@@H]4C)c(C)c3CO[C@@H]1O[C@H](CO)[C@@H](O)[C@H](O)[C@H]1O [Compound 25, phyllochlorin 13-hydroxymethyl-β-D-glucoside ether-β-D-glucosel-N-methyl-N-3,6,9,12,15,18-hexaoxanonadecyl propylamide]	0.146	0.279	–
CCC1=C(C)c2cc3[nH]c(cc4nc(c(C)c5cc(C)c(cc1n2)[nH]5)[C@@H](CCC(=O)N(C)CCCS[C@@H]1O[C@H](CO)[C@@H](O)[C@H](O)[C@H]1O)[C@@H]4C)c(C)c3C(C)O (stereo partly drawn) [Compound 26, 13-hydroxyethylphyllochlorin-β-D-1-thioglucose-N-methylpropylamide]	0.248	21.550	–
CCC1=C(C)c2cc3[nH]c(cc4nc(c(C)c5cc(C)c(cc1n2)[nH]5)[C@@H](CCC(=O)O)[C@@H]4C)c(C)c3C(C)O (stereo partly shown) [Compound 27, phyllochlorin 13-(ethyl-1-alcohol)]	0.397	10.520	–
CCC1=C(C)c2cc3[nH]c(cc4nc(c(C)c5cc(C)c(cc1n2)[nH]5)[C@@H](CCC(=O)OC)[C@@H]4C)c(C)c3C(C)OCCC[n+]1ccc(C)cc1 (stereo partly shown) [Compound 28]	0.003	4.877	–
CCC1=C(C)c2cc3[nH]c(cc4nc(c(C)c5cc(C)c(cc1n2)[nH]5)[C@@H](CCC(=O)OC)[C@@H]4C)c(C)c3COC(=O)NCCOC [Compound 29, phyllochlorin methyl ester 13-(2-methoxyethyl)carbamate]	–	30.000	0.0867
CCC1=C(C)c2cc3[nH]c(cc4nc(c(C)c5cc(C)c(cc1n2)[nH]5)[C@@H](CCC(=O)OC)[C@@H]4C)c(C)c3C=O [Compound 30, phyllochlorin 13-formyl methyl ester]	2.27	45.760	–
CCC1=C(C)c2cc3[nH]c(cc4nc(c(C)c5cc(C)c(cc1n2)[nH]5)[C@@H](CCCO)[C@@H]4C)c(C)c3CO [Compound 32, phyllochlorin 13-hydroxymethyl-3-hydroxypropyl]	0.0724	30.850	–
CCC1=C(C)c2cc3[nH]c(cc4nc(c(C)c5cc(C)c(cc1n2)[nH]5)[C@@H](CCCO[C@@H]1O[C@H](CO)[C@@H](O)[C@H](O)[C@H]1O)[C@@H]4C)c(C)c3CO[C@@H]1O[C@H](CO)[C@@H](O)[C@H](O)[C@H]1O [Compound 33, phyllochlorin 13-hydroxymethyl-3-hydroxypropyl-bis-β-D-glucoside ether]	0.765	14.080	–
CCC1=C(C)c2cc3[nH]c(cc4nc(c(C)c5cc(C)c(cc1n2)[nH]5)[C@@H](CCCO)[C@@H]4C)c(C)c3CO[C@@H]1O[C@H](CO)[C@@H](O)[C@H](O)[C@H]1O [Compound 35, phyllochlorin 3-hydroxypropyl-13-hydroxymethyl-β-D-glucoside ether]	0.0467	1.651	–
